# What was measured:
# [1] = Hydrogen peroxide decomposition test in the presence of poly(sodium 4-styrenesulfonate); settings: 80° C.; for V(O2), generated oxygen volume: 20 minutes, pH4.0 tartrate buffer/ethylene glycol, 2.28 mmol H2O2, blank corrected, 0° C. and 101325 Pa; for N(O2), mole number of oxygen molecule generated per 20 minutes: oxygen regarded as ideal gas
# Description: To a mixture of 8.41 μmol (per one metal atom) of a catalyst and 21.1 mg of poly(sodium 4-styrenesulfonate) (product commercially available from Aldrich, weight average molecular weight: about 70,000) are added 1.00 ml of a tartaric acid/sodium tartrate buffer (pH4.0) and 1.00 ml of ethylene glycol. After this catalyst mixture is stirred at 80° C. for 5 minutes, 0.20 ml of an 11.4 mol/l aqueous hydrogen peroxide solution is added, and the mixture is stirred at 80° C. for 20 minutes. A volume of oxygen generated thereupon is measured with a gas burette, and an amount of decomposed hydrogen peroxide is calculated. Thereafter, this reaction solution is diluted and filtrated, and the filtrate is measured by gel permeation chromatography (GPC), thereby, a weight average molecular weight of poly(sodium 4-styrenesulfonate) after a test is obtained. The GPC analysis condition will be shown below. Column: TSKgel α-M (13 μm, 7.8 mmφ×30 cm) manufactured by Tosoh Corporation, column temperature: 40° C., mobile phase: 50 mmol/l aqueous ammonium acetate solution: CH3CN=7:3 (v/v), flow rate: 0.6 ml/min, detector: RI, injection amount: 50 μl. A weight average molecular weight was obtained as a value in terms of polyethylene oxide. The A value is obtained by the (equation 1), and the B value is obtained by the (equation 2).
# Mn-bbpr (4.90 mg, 8.41 μmol (per one metal atom)), and poly(sodium 4-sutyrenesulfonate)(21.1 mg (product commercially available from Aldrich, weight average molecular weight: about 70,000)) were weighed in a two-necked flask (25 ml), and a tartaric acid/sodium tartrate buffer (1.00 ml (prepared from 0.20 mol/l tartaric acid aqueous solution and 0.10 mol/l sodium tartrate aqueous solution, pH4.0)) and ethylene glycol (1.00 ml) as a solvent were added thereto, followed by stirring. This was used as a catalyst mixed solution.
# Septum was attached to one of inlets of the two-necked flask containing this catalyst mixed solution, and the other inlet was collected to a gas burette. This flask was stirred at 80° C. for 5 minutes, a hydrogen peroxide aqueous solution (11.4 mol/l, 0.20 ml (2.28 mmol)) was added via a syringe, and a hydrogen peroxide decomposition reaction was performed at 80° C. for 20 minutes. Generated oxygen was measured with a gas burette, and decomposed hydrogen peroxide was quantitated. An amount of generated oxygen was corrected based on the following blank test. Thereafter, the reaction solution was diluted with a water/acetonitrile mixed solution (water:acetonitrile=7:3 (v/v)) to a solution amount of 10.0 ml, and this solution was filtered with a syringe filter. This filtrate was GPC-measured, and a weight average molecular weight of poly (sodium 4-sutyrenesulfonate) after a test was obtained.
# Poly(sodium 4-styrenesulfonate) after the hydrogen peroxide decomposition test was GPC-analyzed. The analyzing conditions are shown below. Column: TSKgel α-M (13 μm, 7.8 mmφ×30 cm) manufactured by Tosoh Corporation, column temperature: 40° C., mobile phase: 50 mmol/l ammonium acetate aqueous solution: CH3CN=7:3 (v/v), flow rate: 0.6 ml/min, detector: RI, in injection amount: 50 μl. A weight average molecular weight was obtained as a value in terms of polyethylene oxide.
# An amount of decomposed hydrogen peroxide was obtained from a volume of oxygen generated in the hydrogen peroxide decomposition test.
# [2] = Solubility test of catalyst in DMF; format: physicochemical; settings: for Weight of peroxide decomposition catalyst residue which remained undissolved in DMF: about 20 mg catalyst, DMF 5.00 ml in total, residue on filter paper dried and weighed; for Solubility: catalyst 20.0±0.1 mg in 5.0 ml DMF, equation 3; for solubility (in words): from Table 1, DMF
# Description: Herein, as an index of solubility in a peroxide decomposition catalyst, solubility of a peroxide decomposition catalyst (20.0±0.1 mg) in a constant amount (5.0 ml) of dimethylformamide (hereinafter abbreviated as DMF) can be used. The solubility as used herein is represented by the following (equation 3).
# First, a filter paper (No 5B φ21 m/m) for Kiriyama funnel was dried (100° C., under 200 pa reduced pressure, 6 h), and this was weighed. Then, a peroxide decomposition catalyst (20.0±0.1 mg) and DMF (2.00 ml) were weighed in a 8 ml glass sample tube containing a stirrer, and this was stirred with a magnetic stirrer for 5 minutes. This mixture was transferred with a 2 ml pipette to a glass Kiriyama funnel (φ21 mm) in which the dried filter paper was spread, and this was suction-filtered. The sample tube, the stirrer and the pipette which were used, were washed with DMF several times (total amount 3.00 ml), and the attached catalyst and DMF washing solution were transferred to the Kiriyama funnel, and these were suction-filtered together. Thereafter, the residue on the filter paper, and the filter paper together with the Kiriyama funnel were dried (100° C., under 200 pa reduced pressure, 24 h) in a vacuum oven. After drying, the filter paper, and the residue on the filter paper were weighed, and a dry filter paper weight before filtration was subtracted from this weight to obtain a weight of the peroxide decomposition catalyst residue which remained undissolved in DMF. From this, solubility indicated by the (equation 3) was calculated.
Weight of peroxide decomposition catalyst residue which remained undissolved in DMF [2],Solubility [2],solubility (in words) [2],SMILES,"V(O2), generated oxygen volume [1]","N(O2), mole number of oxygen molecule generated per 20 minutes [1]"
17.5 mg,12.9%,low solubility,"[Co+2].c1ccc2c(c1)-c1nc-2nc2[n-]c(nc3nc(nc4[n-]c(n1)c1ccccc41)-c1ccccc1-3)c1ccccc21 [Cobalt phthalocyanine, cobalt phthalocyanine]",4.9 mL,0.219 mmol
17.3 mg,13.1%,low solubility,"[Cu+2].c1ccc2c(c1)-c1nc-2nc2[n-]c(nc3nc(nc4[n-]c(n1)c1ccccc41)-c1ccccc1-3)c1ccccc21 [Copper phthalocyanine, copper phthalocyanine]",0.00 mL,0.00 mmol
0.03 mg,99.8%,high solubility,CC(C)(C)c1ccc2c(c1)C1=Nc3c4cc(C(C)(C)C)ccc4c4[n]3[Fe][n]3c(c5ccc(C(C)(C)C)cc5c3=NC3=NC(=N4)c4cc(C(C)(C)C)ccc43)=NC2=N1 [Fe-pcy (^tBu)],1.40 mL,0.0625 mmol
17.9 mg,11.0%,low solubility,"[Fe+2].c1ccc2c(c1)-c1nc-2nc2[n-]c(nc3nc(nc4[n-]c(n1)c1ccccc41)-c1ccccc1-3)c1ccccc21 [Iron phthalocyanine, iron phthalocyanine]",14.33 mL,0.64 mmol
16.5 mg,17.8%,low solubility,O.O.[Na+].[Na+].[O]=[W](=[O])([O-])[O-] [Sodium tungstate dihydrate],–,–

# — patent US7988944B2, “Peroxide decomposition catalyst” (Sumitomo Chemical Company, Limited, priority 2005, dated 2011)
